Assay results from ChEMBL document CHEMBL1201862, “PubChem BioAssay data set” (2004).
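Briefly, cells in 96-well plates were exposed to five compound concentrations for 48 h, and endpoints were estimated by linear interpolation. Here, GI50 denotes the concentration required for 50% inhibition of growth.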 The source made the active and inactive calls. No stated cut-off is given here; in the data, active = GI50 up to about 1.1 µM and inactive = higher.

Tests used:
Test in all cases: DTP human tumour cell line panel, 48 h
UO-31 = test system: UO-31
Malme-3M = test system: Malme-3M
U-251 = test system: U-251
OVCAR-5 = test system: OVCAR-5
EKVX = test system: EKVX
HL-60 = test system: HL-60
SF-539 = test system: SF-539
OVCAR-8 = test system: OVCAR-8
UACC-257 = test system: UACC-257
ACHN = test system: ACHN
CAKI-1 = test system: CAKI-1
786-0 = test system: 786-0
SK-MEL-28 = test system: SK-MEL-28
SW-620 = test system: SW-620
RXF 393 = test system: RXF 393
HOP-92 = test system: HOP-92
HCT-116 = test system: HCT-116

Measured: GI50

Cn1c(=O)c2nc3sc4ccccc4c(=N)n3c2n(C)c1=O
inactive: UO-31 > 100 µM | Malme-3M > 100 µM | U-251 > 10 µM | OVCAR-5 > 100 µM | EKVX > 100 µM | HL-60 > 100 µM | SF-539 > 100 µM | OVCAR-8 > 100 µM | UACC-257 > 100 µM | ACHN > 100 µM | CAKI-1 > 100 µM | 786-0 > 100 µM | SK-MEL-28 > 100 µM | SW-620 > 100 µM | RXF 393 > 100 µM | HOP-92 > 100 µM

N#CC(NNC(=O)c1ccccc1O)c1ccccc1O (stereo unspecified)
inactive: UO-31 2.91 µM | Malme-3M 10 µM | U-251 4.18 µM | OVCAR-5 27.1 µM | HL-60 1.27 µM | SF-539 4.06 µM | OVCAR-8 3.58 µM | UACC-257 4.06 µM | ACHN 2.44 µM | CAKI-1 3.27 µM | 786-0 3.55 µM | SK-MEL-28 10.9 µM | HCT-116 4.29 µM | SW-620 7.66 µM | RXF 393 12.8 µM | HOP-92 13.6 µM

CC(C)(C)c1ccc2c(c1)S(=O)(=O)Nc1cccc(c1)NS(=O)(=O)c1cc(C(C)(C)C)ccc1OCCOCCO2
inactive: UO-31 > 100 µM | Malme-3M > 100 µM | U-251 > 100 µM | OVCAR-5 > 100 µM | EKVX > 100 µM | SF-539 > 100 µM | OVCAR-8 > 100 µM | UACC-257 > 100 µM | ACHN > 100 µM | CAKI-1 > 100 µM | 786-0 > 100 µM | SK-MEL-28 > 100 µM | HCT-116 > 100 µM | SW-620 > 100 µM | RXF 393 6.49 µM | HOP-92 50.6 µM

Cc1ccc([S+]([O-])c2ccccc2[N+](=O)[O-])cc1 (stereo unspecified)
inactive: UO-31 51.2 µM | Malme-3M > 100 µM | U-251 48.8 µM | OVCAR-5 72.1 µM | HL-60 29.1 µM | SF-539 58.5 µM | OVCAR-8 > 100 µM | UACC-257 > 100 µM | ACHN > 100 µM | CAKI-1 43.9 µM | 786-0 > 100 µM | SK-MEL-28 42.2 µM | HCT-116 > 10 µM | SW-620 > 100 µM | RXF 393 > 100 µM | HOP-92 60 µM

COc1ccc2c(c1)CCc1c(C(C)=O)c3ccccc3n1C2
inactive: UO-31 11.7 µM | Malme-3M 18.1 µM | U-251 20.2 µM | OVCAR-5 > 100 µM | HL-60 11.5 µM | SF-539 20.7 µM | OVCAR-8 28.1 µM | UACC-257 15.3 µM | ACHN 12 µM | CAKI-1 24 µM | 786-0 31.6 µM | SK-MEL-28 60.3 µM | HCT-116 25.8 µM | SW-620 > 100 µM | RXF 393 22.8 µM | HOP-92 20.3 µM

Cc1ccc(S(=O)(=O)N/N=C(\c2nc3ccc(Cl)cc3[nH]c2=O)C(O)c2ccco2)cc1 (stereo unspecified)
inactive: Malme-3M > 100 µM | OVCAR-5 > 100 µM | EKVX > 100 µM | HL-60 44 µM | SF-539 > 100 µM | UACC-257 > 100 µM | ACHN > 100 µM | CAKI-1 > 100 µM | 786-0 > 100 µM | SK-MEL-28 > 100 µM | HCT-116 > 100 µM | SW-620 > 100 µM | RXF 393 > 100 µM | HOP-92 > 100 µM

CCOc1ccccc1NC(=O)CCC(=O)NN
inactive: UO-31 > 100 µM | Malme-3M > 100 µM | U-251 > 100 µM | OVCAR-5 > 100 µM | HL-60 > 100 µM | SF-539 > 100 µM | OVCAR-8 > 100 µM | UACC-257 > 100 µM | ACHN > 100 µM | CAKI-1 > 100 µM | 786-0 > 100 µM | SK-MEL-28 > 100 µM | HCT-116 > 100 µM | SW-620 > 100 µM | RXF 393 > 100 µM | HOP-92 > 100 µM

O=C(/C=C/c1ccccc1O)C(c1ccccc1)c1ccccc1
inactive: UO-31 > 100 µM | Malme-3M > 100 µM | U-251 > 100 µM | OVCAR-5 > 100 µM | EKVX > 100 µM | SF-539 > 100 µM | OVCAR-8 > 100 µM | UACC-257 > 100 µM | ACHN > 100 µM | CAKI-1 > 100 µM | 786-0 51.1 µM | SK-MEL-28 > 100 µM | HCT-116 > 100 µM | SW-620 13.1 µM | RXF 393 > 100 µM | HOP-92 > 100 µM

Cc1cn(C2CC(O)C(COC(=O)c3ccccc3)O2)c(=O)[nH]c1=O (stereo unspecified)
inactive: Malme-3M > 100 µM | U-251 > 100 µM | OVCAR-5 > 100 µM | HL-60 > 100 µM | SF-539 > 100 µM | OVCAR-8 > 100 µM | UACC-257 > 100 µM | ACHN > 100 µM | CAKI-1 > 100 µM | 786-0 > 100 µM | SK-MEL-28 > 100 µM | HCT-116 > 100 µM | SW-620 > 100 µM | RXF 393 > 100 µM | HOP-92 > 100 µM
